Data reported in article PMC8154581, “Discovery of Novel Thiophene-arylamide Derivatives as DprE1 Inhibitors with Potent Antimycobacterial Activities” (Journal of Medicinal Chemistry, 2021).
Converted amounts (≈) assume the structure as drawn. “And” between values parts separate entries of the source, which are not always exact repeats. Identical values can stand only once. Like-named read-outs stand apart in the source and are kept apart here.

Assays:
[1] = test system: Vero cells; experiment: Cytotoxicity assay in Vero cells (MTT); assay type: cell-based; conditions: for IC50: Chlorocebus sabaeus, Vero cells, 48 h, read-out: IC50 (Vero)
[2] = test system: M. tuberculosis H37Rv; experiment: MIC against replicating M. tuberculosis H37Rv, microplate Alamar blue assay (MABA); assay type: cell-based
[3] = Hepatocyte stability assay, human; conditions: human hepatocytes
[4] = Cytotoxicity assay in HepG2 cells (MTT); conditions: human
[5] = target: hERG K+ channel (Homo sapiens, UniProt Q12809); experiment: Inhibition of the hERG K+ channel, electrophysiology
[6] = target: Mt-DprE1 (Mycobacterium tuberculosis, UniProt P9WJF1); assay type: biochemical, M. tuberculosis
[7] = test system: M. tuberculosis (H37Rv) in infected mouse J774A.1 macrophages; assay type: cell-based
[8] = Hepatocyte stability assay, mouse; conditions: male, mouse hepatocytes
[9] = test system: M. tuberculosis H37Rv; experiment: In vivo efficacy in acute TB infection model in Balb/c mice; conditions: for log10 CFU/lung: oral, three weeks, INH 25 mg/kg
[10] = Mycobacterium tuberculosis, H37RV, against M. tuberculosis H37Rv, Tables 1-3, read-out: MIC
[11] = Mycobacterium tuberculosis, H37RV, supplementary CSV, same values as Tables 1-3, read-out: Minimal inhibit concentration
[12] = Mycobacterium tuberculosis, H37RV, Table 4, read-out: MIC H37Rv

Mt-DprE1, sequence (P9WJF1 whole entry, looked up): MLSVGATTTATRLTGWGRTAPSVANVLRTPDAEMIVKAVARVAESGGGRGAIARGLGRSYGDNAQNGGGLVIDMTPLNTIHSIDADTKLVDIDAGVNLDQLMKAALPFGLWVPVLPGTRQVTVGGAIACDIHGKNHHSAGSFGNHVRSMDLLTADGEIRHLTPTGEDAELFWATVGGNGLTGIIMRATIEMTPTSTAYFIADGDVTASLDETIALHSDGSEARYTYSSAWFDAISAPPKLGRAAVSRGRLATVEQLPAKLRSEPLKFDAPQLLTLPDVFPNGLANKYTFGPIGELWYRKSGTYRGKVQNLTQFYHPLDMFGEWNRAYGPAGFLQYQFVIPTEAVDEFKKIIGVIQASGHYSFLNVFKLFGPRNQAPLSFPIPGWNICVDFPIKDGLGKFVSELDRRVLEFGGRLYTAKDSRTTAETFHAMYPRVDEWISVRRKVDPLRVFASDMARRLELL
hERG K+ channel, sequence (Q12809 whole entry): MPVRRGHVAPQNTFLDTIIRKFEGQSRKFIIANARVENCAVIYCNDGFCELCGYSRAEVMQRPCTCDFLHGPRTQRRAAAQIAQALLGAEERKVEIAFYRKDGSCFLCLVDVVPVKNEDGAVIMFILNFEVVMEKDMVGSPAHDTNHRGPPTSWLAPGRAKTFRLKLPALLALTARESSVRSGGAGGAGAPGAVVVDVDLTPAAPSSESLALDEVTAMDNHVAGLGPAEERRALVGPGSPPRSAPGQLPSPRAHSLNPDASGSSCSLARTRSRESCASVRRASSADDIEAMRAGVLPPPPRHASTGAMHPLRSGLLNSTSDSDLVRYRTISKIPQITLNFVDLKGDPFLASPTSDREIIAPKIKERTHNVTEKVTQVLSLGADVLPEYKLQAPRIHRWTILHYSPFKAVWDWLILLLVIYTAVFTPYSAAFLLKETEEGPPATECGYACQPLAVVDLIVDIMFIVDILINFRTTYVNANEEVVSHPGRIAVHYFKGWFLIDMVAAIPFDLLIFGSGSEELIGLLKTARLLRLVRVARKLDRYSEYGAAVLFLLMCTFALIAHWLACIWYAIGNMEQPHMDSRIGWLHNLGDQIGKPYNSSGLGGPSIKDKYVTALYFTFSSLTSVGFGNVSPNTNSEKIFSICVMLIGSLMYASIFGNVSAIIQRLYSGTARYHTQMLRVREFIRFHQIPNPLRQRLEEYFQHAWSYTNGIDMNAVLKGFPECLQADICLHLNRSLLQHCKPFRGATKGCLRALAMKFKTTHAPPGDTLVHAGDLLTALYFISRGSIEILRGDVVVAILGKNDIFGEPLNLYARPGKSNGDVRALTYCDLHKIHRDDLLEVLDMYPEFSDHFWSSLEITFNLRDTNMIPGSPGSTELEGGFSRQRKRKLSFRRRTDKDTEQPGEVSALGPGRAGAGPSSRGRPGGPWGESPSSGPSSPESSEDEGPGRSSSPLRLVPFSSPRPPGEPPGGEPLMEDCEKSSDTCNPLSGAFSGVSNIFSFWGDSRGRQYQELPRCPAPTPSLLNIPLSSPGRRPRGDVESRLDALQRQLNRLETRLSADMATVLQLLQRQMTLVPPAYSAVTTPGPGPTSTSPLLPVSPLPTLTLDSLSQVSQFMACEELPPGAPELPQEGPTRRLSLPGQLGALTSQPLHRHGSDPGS

## CCOC(=O)NC(=O)c1ccsc1NC(=O)c1ccc(C(=O)NC2CCCCC2)cc1 [Compound 23e, Ethyl (2-(4-(Cyclohexylcarbamoyl)benzamido)thiophene-3-carbonyl)carbamate]
other
  melting point: > 250 °C
[1]
  SI: >128
  IC50: > 64 µg/mL
[2]; [10]
  MIC: 0.5 µg/mL (≈ 1.13 µM)
[2]; [11]
  MIC: 0.5 µg/mL (≈ 1.13 µM)

## CCOC(=O)NC(=O)c1ccsc1NC(=O)c1ccc(C(=O)NC2CCC(C)(C)CC2)cc1 [Compound 23f, Ethyl (2-(4-((4,4-Dimethylcyclohexyl)carbamoyl)benzamido)thiophene-3-carbonyl)carbamate]
other
  melting point: > 250 °C
[1]
  SI: >68
  IC50: > 64 µg/mL
[2]; [10]
  MIC: 0.94 µg/mL (≈ 1.99 µM)
[2]; [11]
  MIC: 0.94 µg/mL (≈ 1.99 µM)

## CCOC(=O)NC(=O)c1ccsc1NC(=O)c1ccc(C(=O)Nc2ccccc2)cc1 [Compound 23g, Ethyl (2-(4-(Phenylcarbamoyl)benzamido)thiophene-3-carbonyl)carbamate]
other
  melting point: > 250 °C
[1]
  SI: 191
  IC50: 23 µg/mL (≈ 52.5 µM)
[2]; [10]
  MIC: 0.12 µg/mL (≈ 0.274 µM)
[2]; [11]
  MIC: 0.12 µg/mL (≈ 0.274 µM)

## CCOC(=O)NC(=O)c1ccsc1NC(=O)c1ccc(C(=O)N2CCC2)cc1 [Compound 23h, Ethyl (2-(4-(Azetidine-1-carbonyl)benzamido)thiophene-3-carbonyl)carbamate]
other
  melting point: 182 to 183 °C
[1]
  SI: >76
  IC50: > 64 µg/mL
[2]; [10]
  MIC: 0.84 µg/mL (≈ 2.09 µM)
[2]; [11]
  MIC: 0.84 µg/mL (≈ 2.09 µM)

## CCOC(=O)NC(=O)c1ccsc1NC(=O)c1ccc(C(=O)N2CCCCC2)cc1 [Compound 23j, Ethyl (2-(4-(Piperidine-1-carbonyl)benzamido)thiophene-3-carbonyl)carbamate]
[3]
  half-life at 1 µM: 50.8 min
  remaining at 0.5 h, 1 µM: 66.4%
[4]
  IC50 at 48 h: > 64 µg/mL
[1]
  IC50: > 64 µg/mL
[5]
  IC50: 23.7 µM
[6]
  IC50 DprE1: 0.3 ± 0.1 µg/mL (≈ 0.698 µM)
[7]
  log10 CFU/macrophages: 4.45 ± 0.03 log10 CFU and 4.54 ± 0.01 log10 CFU
  Δlog10 CFU: 1.07 log10 CFU and 0.98 log10 CFU
[8]
  half-life at 1 µM: 56.4 min
  remaining at 0.5 h, 1 µM: 69.1%
[2]; [10]
  MIC: 0.02 µg/mL (≈ 0.0466 µM)
[2]; [11]
  MIC: 0.02 µg/mL (≈ 0.0466 µM)

## CCOC(=O)NC(=O)c1ccsc1NC(=O)c1ccc(C(=O)N2CCC(OC)CC2)cc1 [Compound 23m, Ethyl (2-(4-(4-Methoxypiperidine-1-carbonyl)benzamido)thiophene-3-carbonyl)carbamate]
other
  melting point: 160 to 161 °C
[1]
  SI: >533
  IC50: > 64 µg/mL
[2]; [10]
  MIC: 0.12 µg/mL (≈ 0.261 µM)
[2]; [11]
  MIC: 0.12 µg/mL (≈ 0.261 µM)

## CCOC(=O)NC(=O)c1ccsc1NC(=O)c1ccc(C(=O)N2CCSCC2)cc1 [Compound 23p, Ethyl (2-(4-(Thiomorpholine-4-carbonyl)benzamido)thiophene-3-carbonyl)carbamate]
other
  melting point: 178 to 179 °C
[1]
  SI: 159
  IC50: 52.3 µg/mL (≈ 117 µM)
[2]; [10]
  MIC: 0.33 µg/mL (≈ 0.737 µM)
[2]; [11]
  MIC: 0.33 µg/mL (≈ 0.737 µM)

## CCOC(=O)NC(=O)c1ccsc1NC(=O)c1ccc(C(=O)N2CCCCC2)cc1Cl [Compound 24c, Ethyl (2-(2-Chloro-4-(piperidine-1-carbonyl)benzamido)thiophene-3-carbonyl)carbamate]
other
  melting point: 59 to 60 °C
[1]
  SI: >142
  IC50: > 64 µg/mL
[2]; [10]
  MIC: 0.45 µg/mL (≈ 0.97 µM)
[2]; [11]
  MIC: 0.45 µg/mL (≈ 0.97 µM)

## CCOC(=O)NC(=O)c1ccsc1NC(=O)c1ccc(C(=O)N2CCCCC2)cc1Br [Compound 24d, Ethyl (2-(2-Bromo-4-(piperidine-1-carbonyl)benzamido)thiophene-3-carbonyl)carbamate]
other
  melting point: 144 to 145 °C
[1]
  SI: >131
  IC50: > 64 µg/mL
[2]; [10]
  MIC: 0.49 µg/mL (≈ 0.964 µM)
[2]; [11]
  MIC: 0.49 µg/mL (≈ 0.964 µM)

## CCOC(=O)NC(=O)c1ccsc1NC(=O)c1ccc(C(=O)N2CCCCC2)cc1[N+](=O)[O-] [Compound 24e, Ethyl (2-(2-Nitro-4-(piperidine-1-carbonyl)benzamido)thiophene-3-carbonyl)carbamate]
other
  melting point: 113 to 114 °C
[1]
  SI: >34
  IC50: > 64 µg/mL
[2]; [10]
  MIC: 1.86 µg/mL (≈ 3.92 µM)
[2]; [11]
  MIC: 1.86 µg/mL (≈ 3.92 µM)

## CCOC(=O)NC(=O)c1ccsc1NC(=O)c1coc(C(=O)N2CCCCC2)c1 [Compound 24k, Ethyl (2-(5-(Piperidine-1-carbonyl)furan-3-carboxamido)thiophene-3-carbonyl)carbamate]
other
  melting point: 157 to 158 °C
[1]
  SI: >173
  IC50: > 64 µg/mL
[2]; [10]
  MIC: 0.37 µg/mL (≈ 0.882 µM)
[2]; [11]
  MIC: 0.37 µg/mL (≈ 0.882 µM)
[2]; [12]
  MIC: 0.15 µg/mL (≈ 0.358 µM)

## COC(=O)NC(=O)c1ccsc1NC(=O)c1ccc(C(=O)N2CCCCC2)c(F)c1 [Compound 25b, Methyl (2-(3-Fluoro-4-(piperidine-1-carbonyl)benzamido)thiophene-3-carbonyl)carbamate]
[3]
  half-life at 1 µM: 32.6 min
  remaining at 0.5 h, 1 µM: 52.8%
[4]
  IC50 at 48 h: > 64 µg/mL
[1]
  IC50: > 64 µg/mL
[5]
  IC50: > 30 µM
[6]
  IC50 DprE1: 0.4 ± 0.1 µg/mL (≈ 0.923 µM)
[7]
  log10 CFU/macrophages: 4.59 ± 0.05 log10 CFU and 4.75 ± 0.21 log10 CFU
  Δlog10 CFU: 0.93 log10 CFU and 0.77 log10 CFU
[8]
  half-life at 1 µM: 12.5 min
  remaining at 0.5 h, 1 µM: 19%
[2]; H37Rv, Table 4
  MIC H37Rv: 0.030 µg/mL (≈ 0.0692 µM)
[2]; [10]
  MIC: 0.03 µg/mL (≈ 0.0692 µM)
[2]; [11]
  MIC: 0.03 µg/mL (≈ 0.0692 µM)
[2]; [12]
  MIC: 0.02 to 0.12 µg/mL (≈ 0.0461 to 0.277 µM)

## Cc1ccnc(NC(=O)c2ccsc2NC(=O)c2ccc(C(=O)N3CCCCC3)cc2)n1 [Compound 25j, N-(4-Methylpyrimidin-2-yl)-2-(4-(piperidine-1-carbonyl)benzamido)thiophene-3-carboxamide]
other
  melting point: 177 to 178 °C
[1]
  IC50: 51.9 µg/mL (≈ 115 µM)
[2]; Mycobacterium tuberculosis, H37RV, against M. tuberculosis H37Rv, Tables 1-3
  MIC: 1.94 µg/mL (≈ 4.32 µM)
[2]; [11]
  MIC: 1.94 µg/mL (≈ 4.32 µM)

## Cc1ccnc(NC(=O)c2ccsc2NC(=O)c2ccc(C(=O)N3CCCCC3)c(F)c2)n1 [Compound 25k, 2-(3-Fluoro-4-(piperidine-1-carbonyl)benzamido)-N-(4-methylpyrimidin-2-yl)thiophene-3-carboxamide]
other
  melting point: 148 to 150 °C
[1]
  SI: >136
  IC50: > 64 µg/mL
[2]; [10]
  MIC: 0.47 µg/mL (≈ 1.01 µM)
[2]; [11]
  MIC: 0.47 µg/mL (≈ 1.01 µM)

## O=C(Nc1sccc1C(=O)Nc1nccc(C(F)(F)F)n1)c1ccc(C(=O)N2CCCCC2)cc1 [Compound 25l, 2-(4-(Piperidine-1-carbonyl)benzamido)-N-(4-(trifluoromethyl)pyrimidin-2-yl)thiophene-3-carboxamide]
other
  melting point: 182 to 183 °C
[1]
  IC50: > 64 µg/mL
[6]
  IC50 DprE1: 0.4 ± 0.1 µg/mL (≈ 0.794 µM)
[7]
  log10 CFU/macrophages: 4.54 ± 0.00 log10 CFU and 4.59 ± 0.03 log10 CFU
  Δlog10 CFU: 0.98 log10 CFU and 0.93 log10 CFU
[2]; [10]
  MIC: 0.2 µg/mL (≈ 0.397 µM)
[2]; [11]
  MIC: 0.2 µg/mL (≈ 0.397 µM)
[2]; [12]
  MIC: 0.2 µg/mL (≈ 0.397 µM)
[2]; against M. tuberculosis H37Rv, Tables 1-3
  MIC: 0.20 µg/mL (≈ 0.397 µM)

## NNC(=O)c1ccncc1 [INH, isoniazid, reference compound]
[9]; first column (batch with 25a; untreated 6.44), 25a 100 mg/kg
  log10 CFU/lung: 1.76 ± 0.49 log10 CFU
[9]; in vivo
  Δlog10 CFU: 4.68/5.17 log10 CFU
[9]; second column (another batch, with TCA1; untreated 7.10), TCA1 100 mg/kg
  log10 CFU/lung: 1.93 ± 0.21 log10 CFU
[2]; [12]
  MIC: 0.019 µg/mL (≈ 0.139 µM)
